Measurements from ChEMBL document CHEMBL5154722, “Identification of new potent anticancer derivatives through simplifying the core structure and modification on their 14- hydroxyl group from oridonin” (Eur J Med Chem, 2022).

How the values were obtained:
Type in all cases: functional, cell-based
K562 = experiment: Antiproliferative activity against human K562 cells assessed as reduction in cell viability incubated for 72 hrs by MTT assay; settings: K562, 72 h
MDA-MB-231 = experiment: Antiproliferative activity against human MDA-MB-231 cells assessed as reduction in cell viability incubated for 72 hrs by MTT assay; settings: MDA-MB-231, 72 h
SMMC-7721 = experiment: Antiproliferative activity against human […] cells assessed as reduction in cell viability incubated for 72 hrs by MTT assay; settings: SMMC-7721, 72 h
MCF7 = experiment: Antiproliferative activity against human MCF7 cells assessed as reduction in cell viability incubated for 72 hrs by MTT assay; settings: MCF7, 72 h

Row | SMILES | IC50 (K562) [nM] | IC50 (MDA-MB-231) [nM] | IC50 (SMMC-7721) [nM] | IC50 (MCF7) [nM]
1 | C=C1C(=O)[C@]23[C@H](O)[C@H]1CC[C@H]2[C@]12CCCC(C)(C)[C@H]1C[C@@]3(O)OC2 | 1980 | 2510 | 2960 | 2970
2 | C=C1C(=O)[C@@]23C(=O)[C@@H](OC(C)=O)[C@@H]4C(C)(C)CCC[C@@]4(COC(C)=O)[C@@H]2CC[C@@H]1[C@H]3OC(C)=O | 1030 | 1590 | 2270 | 2060
3 | C=C1C(=O)[C@]23[C@H](O)[C@H]1CC[C@H]2[C@]12CCCC(C)(C)[C@H]1[C@H](O)[C@@]3(O)OC2 | 1230 | 2040 | 3140 | 2800
4 | C=C1C(=O)[C@]23[C@H](OC(=O)/C=C/c4ccco4)[C@H]1CC[C@H]2[C@]12C=CCC(C)(C)[C@H]1[C@H](O)[C@@]3(O)OC2 | 1520 | – | – | –
5 | C=C1C(=O)[C@]23[C@H](OC(=O)/C=C/c4ccccc4)[C@H]1CC[C@H]2[C@]12C=CCC(C)(C)[C@H]1[C@H](O)[C@@]3(O)OC2 | 710 | – | – | –
6 | C=C1C(=O)[C@]23[C@H](OC(=O)/C=C/c4ccc5ccccc5c4)[C@H]1CC[C@H]2[C@]12C=CCC(C)(C)[C@H]1[C@H](O)[C@@]3(O)OC2 | 2880 | – | – | –
7 | C=C1C(=O)[C@]23[C@H](OC(=O)/C=C/c4cncnc4)[C@H]1CC[C@H]2[C@]12C=CCC(C)(C)[C@H]1[C@H](O)[C@@]3(O)OC2 | 460 | – | – | –
8 | C=C1C(=O)[C@]23[C@H](OC(C)=O)[C@H]1CC[C@H]2[C@]12CCCC(C)(C)[C@H]1[C@H](O)[C@@]3(O)OC2 | 5340 | – | – | –
9 | C=C1C(=O)[C@]23[C@H](OC(=O)/C=C/c4cccnc4)[C@H]1CC[C@H]2[C@]12C=CCC(C)(C)[C@H]1[C@H](O)[C@@]3(O)OC2 | 540 | – | – | –
10 | C=C1C(=O)[C@]23[C@H](OC(=O)/C=C/c4cccnc4Br)[C@H]1CC[C@H]2[C@]12C=CCC(C)(C)[C@H]1[C@H](O)[C@@]3(O)OC2 | 3090 | – | – | –
11 | C=C1C(=O)[C@]23[C@H](OC(=O)/C=C/c4ccsc4)[C@H]1CC[C@H]2[C@]12C=CCC(C)(C)[C@H]1[C@H](O)[C@@]3(O)OC2 | 1340 | – | – | –
12 | C=C1C(=O)[C@]23[C@H](OC(=O)/C=C(\C)c4ccccc4)[C@H]1CC[C@H]2[C@]12CCCC(C)(C)[C@H]1[C@H](O)[C@@]3(O)OC2 | 5320 | – | – | –
13 | C=C1C(=O)[C@]23[C@H](OC(=O)/C=C/c4ccccc4)[C@H]1CC[C@H]2[C@]12CCCC(C)(C)[C@H]1[C@H](O)[C@@]3(O)OC2 | 1760 | – | – | –
14 | C=C1C(=O)[C@]23[C@H](OC(=O)c4ccc(C)cc4)[C@H]1CC[C@H]2[C@]12CCCC(C)(C)[C@H]1C[C@@]3(O)OC2 | 5460 | – | – | –
15 | C=C1C(=O)[C@]23[C@H](OC(=O)/C=C/c4ccccc4)[C@H]1CC[C@H]2[C@]12CCCC(C)(C)[C@H]1C[C@@]3(O)OC2 | 2740 | – | – | –
16 | C=C1C(=O)[C@]23[C@H](OC(=O)/C=C/c4ccc5ccccc5c4)[C@H]1CC[C@H]2[C@]12CCCC(C)(C)[C@H]1[C@H](O)[C@@]3(O)OC2 | 3700 | – | – | –
17 | C=C1C(=O)[C@]23[C@H](OC(=O)/C=C/C)[C@H]1CC[C@H]2[C@]12CCCC(C)(C)[C@H]1[C@H](O)[C@@]3(O)OC2 | 390 | – | – | –
18 | C=C1C(=O)[C@]23[C@H](OC(C)=O)[C@H]1CC[C@H]2[C@]12CCCC(C)(C)[C@H]1C[C@@]3(O)OC2 | 1200 | – | – | –
19 | C=C1C(=O)[C@]23[C@H](OC(=O)/C=C/c4ccnc(F)c4)[C@H]1CC[C@H]2[C@]12CCCC(C)(C)[C@H]1C[C@@]3(O)OC2 | 900 | – | – | –
20 | C=C1C(=O)[C@]23[C@H](OC(=O)/C=C/c4cccc5[nH]ccc45)[C@H]1CC[C@H]2[C@]12C=CCC(C)(C)[C@H]1[C@H](O)[C@@]3(O)OC2 | 2580 | – | – | –
